# Article PMC11850406, “Large-scale screening of HIV-1 T-cell epitopes restricted by 12 prevalent HLA-A allotypes in Northeast Asia and universal detection of HIV-1-specific CD8^+ T cells” (Frontiers in Microbiology, 2025)
# pIC50: −log10 of the molar value. Where two headings read alike, the source gives them in different places. Where no end group is shown, it is not given here.
# Assays:
# HLA-A0301 = target: T1, HLA-A0301 (Homo sapiens, UniProt P04439); assay: cell-based; type: binding; details: for inhibition at 5 µM: read-out: 5-μM inhibition (%); for inhibition at 15 µM: read-out: 15-μM inhibition (%)
# T1 construct: expressed in transfected cells; host or cells: HMy2.CIR
# T1 sequence (P61769 21-119): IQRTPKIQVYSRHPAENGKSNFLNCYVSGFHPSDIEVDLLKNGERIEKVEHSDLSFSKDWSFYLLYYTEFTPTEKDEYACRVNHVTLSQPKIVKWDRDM
# T1 sequence (P04439 25-365): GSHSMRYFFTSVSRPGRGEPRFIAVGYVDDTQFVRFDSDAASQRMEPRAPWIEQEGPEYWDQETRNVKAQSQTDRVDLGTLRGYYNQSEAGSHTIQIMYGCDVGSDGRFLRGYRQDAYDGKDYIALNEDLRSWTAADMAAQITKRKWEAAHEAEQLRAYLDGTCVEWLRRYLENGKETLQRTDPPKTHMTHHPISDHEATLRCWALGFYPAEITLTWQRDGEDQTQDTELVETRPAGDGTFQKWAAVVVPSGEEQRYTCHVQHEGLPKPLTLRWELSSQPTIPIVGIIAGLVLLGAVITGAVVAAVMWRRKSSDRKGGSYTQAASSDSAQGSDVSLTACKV
# HLA-A3001 = target: T2, HLA-A3001 (Homo sapiens, UniProt P04439, D140H/D185E/E176W/F33S/G80R/H175R/K168Q/R138E/R41S); assay: cell-based; type: binding; details: for inhibition at 5 µM / inhibition at 15 µM: 24 h; for inhibition at 5 µM: read-out: 5-μM inhibition (%); for inhibition at 15 µM: read-out: 15-μM inhibition (%)
# T2 construct: expressed in transfected cells; host or cells: HMy2.CIR
# HLA-A0101 = target: T3, HLA-A0101 (Homo sapiens, UniProt P04439, A114D/A174V/A182V/D101N/D185E/E176A/E190D/L180R/Q94H/R68K/S129P/T187R/V100A/V91M/W191G); assay: Peptide competitive binding assay, HMy2.CIR cells expressing A0101; details: for inhibition at 5 µM / inhibition at 15 µM: 24 h; for inhibition at 5 µM: read-out: 5-μM inhibition (%); for inhibition at 15 µM: read-out: 15-μM inhibition (%)
# T3 construct: expressed in transfected cells; host or cells: HMy2.CIR
# HLA-A1101 = target: T4, HLA-A1101 (Homo sapiens, UniProt P04439, A114D/D185E/E176A/F33Y/L180Q/S129P/T187R); assay: cell-based; type: binding
# T4 construct: expressed in transfected cells; host or cells: HMy2.CIR
# HLA-A1102 = HLA-A1102 (Homo sapiens, UniProt P04439, A114D/D185E/E176A/E43K/F33Y/L180Q/S129P/T187R); assay: cell-based; type: binding; details: A1102, 24 h, 4°C, flow cytometry
# Sequence of HLA-A1102 (P04439 25-365 limits assumed, stated change not applied): as the sequence (P04439 25-365) above
# HLA-A0201 = target: T5, HLA-A0201 (Homo sapiens, UniProt P04439, D140Y/D185E/D98H/E176V/E277Q/G131W/G231S/I119V/I121R/I166T/I218V/L300P/L318F/N151K/N90K/P208A/P217A/Q86G/Q94H/R138H/R169H/T345S); assay: cell-based; type: binding; details: A0201, 24 h, 4°C, flow cytometry
# T5 construct: expressed in transfected cells; host or cells: HMy2.CIR
# HLA-A0203 = target: T6, HLA-A0203 (Homo sapiens, UniProt P04439, A173T/D140Y/D185E/D98H/E277Q/G131W/G231S/I119V/I121R/I166T/I218V/L180W/L300P/L318F/N151K/N90K/P208A/P217A/Q86G/Q94H/R138H/R169H/T345S); assay: cell-based; type: binding
# T6 construct: expressed in transfected cells; host or cells: HMy2.CIR
# HLA-A0206 = target: T7, HLA-A0206 (Homo sapiens, UniProt P04439, D140Y/D185E/D98H/E176V/E277Q/F33Y/G131W/G231S/I119V/I121R/I166T/I218V/L300P/L318F/N151K/N90K/P208A/P217A/Q86G/Q94H/R138H/R169H/T345S); assay: Peptide competitive binding assay, HMy2.CIR cells expressing A0206; details: 24 h, 4°C, flow cytometry
# T7 construct: expressed in transfected cells; host or cells: HMy2.CIR
# [1] = A0301, peptide 5 μM vs FITC-labeled reference peptide 300 nM, 24 h, 4°C, flow cytometry
# [2] = A0301, peptide 15 μM vs FITC-labeled reference peptide 300 nM, 24 h, 4°C, flow cytometry
# [3] = A0101, peptide 5 μM vs FITC-labeled reference peptide 300 nM, 4°C, flow cytometry
# [4] = A0101, peptide 15 μM vs FITC-labeled reference peptide 300 nM, 4°C, flow cytometry
# [5] = peptide 5 μM vs FITC-labeled reference peptide 300 nM, read-out: 5-μM inhibition (%)
# [6] = peptide 15 μM vs FITC-labeled reference peptide 300 nM, read-out: 15-μM inhibition (%)
# [7] = peptide 5 μM vs FITC-labeled reference peptide 300 nM
molecule,measurement,setting,value
KLAGRWPVK [Peptide P95],pIC50,HLA-A0301,4.82 to 5.30
same,inhibition at 5 µM,HLA-A0301; [1],28.9%
same,inhibition at 15 µM,HLA-A0301; [2],53.7%
same,pIC50,HLA-A3001,> 5.30
same,inhibition at 5 µM,"HLA-A3001; A3001, peptide 5 μM vs FITC-labeled reference peptide 300 nM, 4°C, flow cytometry",83.7%
same,inhibition at 15 µM,"HLA-A3001; A3001, peptide 15 μM vs FITC-labeled reference peptide 300 nM, 4°C, flow cytometry",95.9%
KLVSSGIRK [Peptide P85],5-μM inhibition (%),HLA-A0301; [1],19.14%
same,15-μM inhibition (%),HLA-A0301; [2],38.04%
LLYWGQELK [Peptide P84],pIC50,HLA-A0301,4.82 to 5.30
same,inhibition at 5 µM,HLA-A0301; [1],25.7%
same,inhibition at 15 µM,HLA-A0301; [2],56.2%
EADGKVSQNY [Peptide P67],pIC50,HLA-A0101,4.82 to 5.30
same,inhibition at 5 µM,HLA-A0101,21.4%
same,inhibition at 15 µM,HLA-A0101,62%
YSENSSEYY [Peptide P68],pIC50,"HLA-A0101; A0101, class from inhibition at 5 and 15 μM of FITC-labeled reference peptide binding, read-out: Affinity",> 5.30
same,inhibition at 5 µM,HLA-A0101; [3],83.8%
same,inhibition at 15 µM,HLA-A0101; [4],94.2%
CC[C@H](C)[C@H](NC(=O)[C@H](C)N)C(=O)N[C@@H](Cc1ccccc1)C(=O)N[C@@H](CCC(N)=O)C(=O)N[C@@H](CO)C(=O)N[C@@H](CO)C(=O)N[C@@H](CCSC)C(=O)N[C@H](C(=O)N[C@@H](CCCCN)C(=O)O)[C@@H](C)O [Peptide P40],pIC50,HLA-A1101,> 5.30
same,inhibition at 5 µM,"HLA-A1101; A1101, peptide 5 μM vs FITC-labeled reference peptide 300 nM, 24 h, 4°C, flow cytometry, read-out: 5-μM inhibition (%)",67.9%
same,inhibition at 15 µM,"HLA-A1101; A1101, peptide 15 μM vs FITC-labeled reference peptide 300 nM, 24 h, 4°C, flow cytometry, read-out: 15-μM inhibition (%)",89.5%
same,pIC50,HLA-A0301,4.82 to 5.30
same,inhibition at 5 µM,HLA-A0301; 24 h,22.4%
same,inhibition at 15 µM,HLA-A0301; 24 h,50.6%
same,inhibition at 5 µM,HLA-A1102; [5],2.89%
same,inhibition at 15 µM,HLA-A1102; [6],16.1%
same,pIC50,HLA-A3001,> 5.30
same,inhibition at 5 µM,HLA-A3001,60.4%
same,inhibition at 15 µM,HLA-A3001,67.7%
RLINCNTSV [Peptide P6],inhibition at 5 µM,HLA-A0201; [5],0.13%
same,inhibition at 15 µM,HLA-A0201; [6],23.6%
same,pIC50,HLA-A0203,4.82 to 5.30
same,inhibition at 5 µM,"HLA-A0203; A0203, peptide 5 μM vs FITC-labeled reference peptide 300 nM, 24 h, 4°C, flow cytometry, read-out: 5-μM inhibition (%)",15.8%
same,inhibition at 15 µM,"HLA-A0203; A0203, peptide 15 μM vs FITC-labeled reference peptide 300 nM, 24 h, 4°C, flow cytometry, read-out: 15-μM inhibition (%)",70.7%
same,inhibition at 5 µM,HLA-A0206; [7],14.6%
same,inhibition at 15 µM,HLA-A0206; peptide 15 μM vs FITC-labeled reference peptide 300 nM,41.8%
VTDSQYALGI [Peptide P69],inhibition at 5 µM,HLA-A0101; [3],35.6%
same,inhibition at 15 µM,HLA-A0101; [4],71.2%
same,pIC50,HLA-A0101; read-out: Affinity,4.82 to 5.30
KVILVAVHV [Peptide P74],5-μM inhibition (%),HLA-A0206; [7],20.64%
